Consider twelve compounds from patent US10053477B2, “Spirocyclic aryl phosphorus oxide and aryl phosphorus sulfide” (QILU PHARMACEUTICAL CO., LTD., priority 2014, dated 2018).

In one experiment the target is T1, EGFR T790M/L858R (Homo sapiens, UniProt P00533, L858R/T790M).
T1 construct: purchased Life technology (Madison, Wis.)
Description: EGFR T790M/L858R enzymatic inhibition (HTRF). In kind it is biochemical. As to conditions: 20 μM ATP. The method, then: Enzyme: ALK wild-type, ALK C1156Y and ALK L1196M supplied by Carna Biosciences (Japan), EGFR T790M/L858R supplied by Life technology (Madison, Wis.).
HTRF kit: supplied by Cis-Bio International, with Eu-marked TK1 antibody, XL665- and biotin-labelled TK1 polypeptide substrates.
The compound to be tested is diluted at a gradient by 3 times thereby giving 11 gradients starting from […] to 0.017 nM for the final concentration.
10 μl EGFR T790M/L858R enzyme reaction mixture system: 0.08 nM EGFR T790M/L858R, 1 μM biotin-TK1 peptide, 20 μM ATP. Reaction buffer: 50 mM Hepes (pH7.5), 10 mM MgCl2, 0.01 mM NaV3VO4. The reaction plate was white Proxiplate 384-Plus plate (PerkinElmer). Reaction was reacted at room temperature for 60 minutes.
Detecting reaction: 10 μl testing reagent was added to the reaction plate, the final concentration of Antibody was 2 nM, XL665 was 62.5 nM. Incubation was carried out for 60 minutes at room temperature. Detection was by Envision.

The test system of experiment [1] is LU-01-0015 xenotransplantation (PDX) from lung cancer patients. Briefly: In vivo efficacy, LU-01-0015 xenotransplantation (PDX) from lung cancer patients. Set-up: species or system BALB/c nude mice. As to conditions: 25 mg/kg orally everyday. The text has this: BALB/c nude mice, female, 6 to 8 weeks, about 18 to 22 g bodyweight, was kept in a special environment without pathogens, and a single ventilated cage (5 mice per cage). Beddings and water in all the cages were disinfected before use. […] 80 mice were supplied by Shanghai BK Laboratory Animal Co., LTD for study. Each mouse was subcutaneously implanted tumor tissue (20-30 mm^3) at right flank for growth of tumor. When the average tumor volume reached about 250-300 mm^3, the assay started. Test compounds were delivered orally everyday, 25 mg/kg. Tumor size was measured with two-dimensional caliper every 3 days, size was recorded by mm^3, and calculated by the following formula: V=V=0.5a×b2, where a and b are respectively the long diameter and short diameter length of the tumor. The antitumor efficacy was determined by dividing the average increased tumor volume in compound-treated animal by the average increased tumor volume in untreated animal.

Experiment [2] has as its system LU-01-0319 Crizotinib resistance model. Briefly: In vivo anti-tumor efficacy, Crizotinib resistant LU-01-0319 xenotransplantation (PDX) tumor. Details: species or system BALB/c nude mice. As to conditions: 25 mg/Kg orally once a day. The source says: LU-01-0319 xenotransplantation tumor models initially obtained from clinical sample through surgical resection were implanted into nude mice, which was defined as a batch of P0 (LU-01-0319-P0). The next batch was defined as P1 (LU-01-0319-P1) which was implanted tumors from P0. FP3 was regained from P2, the next batch was defined as FP4 which was implanted tumors from FP3. […] The continuous increasing tumors were defined as LU-01-0319 antitumor models. BALB/c nude mice, female, 6 to 8 weeks, about 18 to 22 g bodyweight, 75 mice were used for study, supplied by Shanghai BK Laboratory Animal Co., LTD. Tumour biopsies (about 30 mm^3) of LU-01-0319R FP6 were implanted subcutaneously on right side of each mouse for growth of tumor. […] Dose of Crizotinib was appropriately varied depending on the tumor size. When average tumor volume reached about ˜500 mm^3, the assay began. Once a day the compounds to be tested were orally administered. Tumor size were measured twice a week with a caliper at two dimensions, and calculated with the following formula: V=0.5a×b2, where a and b are respectively long diameter and short diameter of the tumor. The antitumor efficacy was determined by dividing the average increased tumor volume in compound-treated animal by the average increased tumor volume in untreated animal.

T1 sequence (P00533 25-1210 T790M/L858R): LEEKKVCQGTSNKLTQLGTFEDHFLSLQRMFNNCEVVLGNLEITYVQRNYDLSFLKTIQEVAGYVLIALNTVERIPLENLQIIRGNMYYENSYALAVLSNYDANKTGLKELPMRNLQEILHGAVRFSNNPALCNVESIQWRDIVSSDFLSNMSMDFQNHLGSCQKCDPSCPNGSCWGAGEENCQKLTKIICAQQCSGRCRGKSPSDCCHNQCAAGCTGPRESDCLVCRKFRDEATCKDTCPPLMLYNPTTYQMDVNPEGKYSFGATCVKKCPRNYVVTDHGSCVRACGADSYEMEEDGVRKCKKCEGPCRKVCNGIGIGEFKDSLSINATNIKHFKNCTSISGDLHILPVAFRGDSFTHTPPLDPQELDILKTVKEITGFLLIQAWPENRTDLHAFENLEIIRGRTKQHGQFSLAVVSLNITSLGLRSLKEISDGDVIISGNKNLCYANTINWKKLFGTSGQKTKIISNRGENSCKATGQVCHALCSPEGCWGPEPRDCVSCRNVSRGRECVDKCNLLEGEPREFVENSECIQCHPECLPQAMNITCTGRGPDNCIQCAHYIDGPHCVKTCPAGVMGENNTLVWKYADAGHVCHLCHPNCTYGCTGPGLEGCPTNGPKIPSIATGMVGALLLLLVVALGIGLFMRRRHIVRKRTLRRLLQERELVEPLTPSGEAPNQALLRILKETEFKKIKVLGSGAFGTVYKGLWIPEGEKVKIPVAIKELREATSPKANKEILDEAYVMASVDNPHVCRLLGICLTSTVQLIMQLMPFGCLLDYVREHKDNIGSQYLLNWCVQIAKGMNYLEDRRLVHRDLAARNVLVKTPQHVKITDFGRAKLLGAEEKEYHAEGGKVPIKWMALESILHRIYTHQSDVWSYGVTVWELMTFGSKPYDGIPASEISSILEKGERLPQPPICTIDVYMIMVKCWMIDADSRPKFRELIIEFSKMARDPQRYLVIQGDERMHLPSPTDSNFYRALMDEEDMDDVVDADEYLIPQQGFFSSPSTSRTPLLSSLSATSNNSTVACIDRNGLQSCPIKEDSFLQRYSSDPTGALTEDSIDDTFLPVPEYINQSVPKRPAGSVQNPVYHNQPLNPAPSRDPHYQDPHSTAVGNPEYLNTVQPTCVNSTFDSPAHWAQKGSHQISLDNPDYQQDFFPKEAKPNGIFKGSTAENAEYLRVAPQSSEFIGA

Regarding `COc1cc(N2CCC3(CCNC3)CC2)ccc1Nc1ncc(Cl)c(Nc2ccccc2P(C)(C)=O)n1` [Compound 3, (2-((5-Chloro-2-((2-methoxy-4-(2,8-diazaspiro[4.5]decan-8-yl)phenyl)amino)pyrimidin-4-yl)amino)phenyl)dimethylphosphine oxide], the concentration for half-maximal inhibition (IC50) (usually the point on the concentration scale where inhibition reaches its midpoint) against EGFR T790M/L858R fell in the range of 1 to 100 nM.

The compound `COc1cc(N2CCC3(CC2)CNC3)ccc1Nc1ncc(Cl)c(Nc2ccccc2P(C)(C)=O)n1` [Compound 4, (2-((5-Chloro-2-((2-methoxy-4-(2,7-diazaspiro[3.5]nonan-7-yl)phenyl)amino)pyrimidin-4-yl)amino)phenyl)dimethyl phosphine oxide] had an IC50 at EGFR T790M/L858R of 1 to 100 nM.

At EGFR T790M/L858R, `COc1cc(N2CCC3(CNC3)C2)ccc1Nc1ncc(Cl)c(Nc2ccccc2P(C)(C)=O)n1` [Compound 6, (2-((5-Chloro-2-((2-methoxy-4-(2,6-diazaspiro[3.4]octan-6-yl)phenyl)amino)pyrimidin-4-yl)amino)phenyl)dimethyl phosphine oxide] registered an IC50 of 1 to 100 nM.

The compound `COc1cc(N2CCC3(CCNCC3)CC2)ccc1Nc1ncc(Cl)c(Nc2ccccc2P(C)(C)=O)n1` [Compound 8, (2-((5-Chloro-2-((2-methoxy-4-(3,9-diazaspiro[5.5]undecan-3-yl)phenyl)amino)pyrimidin-4-yl)amino)phenyl)dimethyl phosphine oxide] came in with a concentration for half-maximal inhibition (IC50) on EGFR T790M/L858R of 1 to 100 nM.

As to `CN1CCC2(CC1)CCN(c1ccc(Nc3ncc(Cl)c(Nc4ccccc4P(C)(C)=O)n3)c(OC(F)F)c1)CC2` [Compound 11, (2-((5-Chloro-2-((2-(difluoromethoxy)-4-(9-methyl-3,9-diazaspiro[5.5]undecan-3-yl)phenyl)amino)pyrimidin-4-yl)amino)phenyl)dimethyl phosphine oxide], at EGFR T790M/L858R, the half-maximal inhibitory concentration (IC50) was 1 to 100 nM.

Consider `COc1cc(N2CCC3(CCN(C)CC3)CC2)ccc1Nc1ncc(Cl)c(Nc2ccccc2P(C)(C)=S)n1` [Compound 12, 5-Chloro-N^4-(2-(dimethylphosphorothioyl)phenyl)-N^2-(2-methoxy-4-(9-methyl-3,9-diazaspiro[5.5]undecan-3-yl)phenyl)pyrimidine-2,4-diamine], for which the 50% inhibitory concentration (IC50) on EGFR T790M/L858R was in the range of 1 to 100 nM. The Tumor volume in experiment [1] (3 days) was determined as 199 mm^3; in experiment [1] (6 days), 97 mm^3; in experiment [1] (9 days), 90 mm^3; in experiment [1] (12 days) it was 58 mm^3; in experiment [1] (16 days), 49 mm^3; in experiment [1] (19 days) it was 42 mm^3. This compound also yielded a Tumor volume in experiment [1] (23 days) of 32 mm^3.

`COc1cc(N2CCC3(CCN(C)CC3)CC2)c(F)cc1Nc1ncc(Cl)c(Nc2ccccc2P(C)(C)=O)n1` [Compound 20, (2-((5-Chloro-2-((5-fluoro-2-methoxy-4-(9-methyl-3,9-diazaspiro[5.5]undecan-3-yl)phenyl)amino)pyrimidin-4-yl)amino)phenyl)dimethyl phosphine oxide] came in with a 50% inhibitory concentration (IC50) at EGFR T790M/L858R of 1 to 100 nM.

On to `COc1cc(N2CCC3(CCN(C)CC3)CC2)c(Cl)cc1Nc1ncc(Cl)c(Nc2ccccc2P(C)(C)=O)n1` [Compound 22, (2-((5-Chloro-2-((5-chloro-2-methoxy-4-(9-methyl-3,9-diazaspiro[5.5]undecan-3-yl)phenyl)amino)pyrimidin-4-yl)amino)phenyl)dimethyl phosphine oxide], for which, on EGFR T790M/L858R, the IC50 lay within 1 to 100 nM. Further, the Tumor volume in experiment [1] (3 days) stood at 234 mm^3; in experiment [1] (6 days) it was 137 mm^3; in experiment [1] (9 days) it was 90 mm^3; in experiment [1] (12 days) it was 68 mm^3; in experiment [1] (16 days) it was 46 mm^3; in experiment [1] (19 days), 54 mm^3. In experiment [1] (23 days), this compound displayed a Tumor volume of 41 mm^3.

For `COc1cc(N2CCC3(CCN(C)CC3)CC2)c(C)cc1Nc1ncc(Cl)c(Nc2ccccc2P(C)(C)=O)n1` [Compound 23, (2-((5-Chloro-2-((2-methoxy-5-methyl-4-(9-methyl-3,9-diazaspiro[5.5]undecan-3-yl)phenyl)amino)pyrimidin-4-yl)amino)phenyl)dimethyl phosphine oxide], the IC50 against EGFR T790M/L858R lay within 1 to 100 nM.

`COc1cc(N2CCC3(CCN(C)CC3)CC2)ccc1Nc1ncc(Cl)c(Nc2c(F)cccc2P(C)(C)=O)n1` [Compound 25, (2-((5-Chloro-2-((2-methoxy-4-(9-methyl-3,9-diazaspiro[5.5]undecan-3-yl)phenyl)amino)pyrimidin-4-yl)amino)-3-fluorophenyl)dimethyl phosphine oxide] displayed a concentration for half-maximal inhibition (IC50) against EGFR T790M/L858R of 101 to 1000 nM.

Regarding `COc1cc(N2CCC3(CCN(C)CC3)CC2)ccc1Nc1ncc(Cl)c(Nc2ccc(F)cc2P(C)(C)=O)n1` [Compound 26, (2-((5-Chloro-2-((2-methoxy-4-(9-methyl-3,9-diazaspiro[5.5]undecan-3-yl)phenyl)amino)pyrimidin-4-yl)amino)-5-fluorophenyl)dimethyl phosphine oxide], at EGFR T790M/L858R, the IC50 lay within 1 to 100 nM. Moreover, the Tumor volume in experiment [1] (3 days) is given as 235 mm^3; in experiment [1] (6 days), 127 mm^3; in experiment [1] (9 days), 84 mm^3; in experiment [1] (12 days), 55 mm^3; in experiment [1] (16 days), 46 mm^3; in experiment [1] (19 days), 59 mm^3. The Tumor volume in experiment [1] (23 days) amounted to 53 mm^3.

As for `C[C@@H](Oc1cc(-c2cnn(C3CCNCC3)c2)cnc1N)c1c(Cl)ccc(F)c1Cl` [Crizotinib, reference compound], the Tumor volume in experiment [1] (3 days) was found to be 297 mm^3; in experiment [1] (6 days), 288 mm^3; in experiment [1] (9 days) it was 311 mm^3; in experiment [1] (12 days), 340 mm^3; in experiment [1] (16 days), 413 mm^3; in experiment [1] (19 days), 419 mm^3. In addition, the Tumor volume in experiment [1] (23 days) was found to be 439 mm^3; in experiment [2] (0 day), 502 mm^3; in experiment [2] (3 days), 708 mm^3; in experiment [2] (7 days) it was 828 mm^3; in experiment [2] (10 days), 1002 mm^3; in experiment [2] (13 days), 1116 mm^3. Further, the results for the Tumor volume in experiment [2] (17 days) and in experiment [2] (19 days) were 1415 mm^3 and 1488 mm^3, respectively.
